Usually IC50 stands for the concentration that inhibits the measured activity by half. For orientation: EC50 means the concentration at which the effect is half-maximal.

The values below come from US20100227844A1, “CANNABINOID-1 RECEPTOR MODULATORS USEFUL FOR THE TREATMENT OF ALZHEIMER'S DISEASE” (priority 2007, published 2010).

The target of assay [1] is recombinant human CB1 receptor (Homo sapiens, UniProt P21554). Nature of the assay: Cannabinoid Receptor-1 (CB1) Binding (IC50) Assay. Conditions: [3H]CP-55940 0.6 nM, CHO cell membranes.
Chain of recombinant human CB1 receptor (P21554 whole entry): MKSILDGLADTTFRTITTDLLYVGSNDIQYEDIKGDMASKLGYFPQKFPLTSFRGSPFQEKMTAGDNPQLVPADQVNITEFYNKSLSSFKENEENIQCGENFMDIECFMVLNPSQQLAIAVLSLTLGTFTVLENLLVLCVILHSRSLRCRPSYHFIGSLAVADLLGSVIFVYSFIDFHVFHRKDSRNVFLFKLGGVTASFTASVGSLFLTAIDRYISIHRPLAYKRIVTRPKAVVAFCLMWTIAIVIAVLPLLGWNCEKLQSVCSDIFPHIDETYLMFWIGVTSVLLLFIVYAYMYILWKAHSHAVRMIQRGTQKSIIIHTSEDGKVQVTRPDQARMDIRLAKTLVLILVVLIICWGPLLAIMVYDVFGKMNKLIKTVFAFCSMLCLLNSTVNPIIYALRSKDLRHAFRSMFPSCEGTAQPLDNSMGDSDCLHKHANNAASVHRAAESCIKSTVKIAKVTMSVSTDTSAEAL
Assay [2] has as its target recombinant human CB1 receptor expressed in CHO cells (Homo sapiens, UniProt P21554). Nature of the assay: Cannabinoid Receptor-1 (CB1) Functional Activity (EC50) Assay. The assay is classed as cell-based. The settings on record: forskolin-stimulated intracellular cAMP.
A further assay has as its system mice. The settings on record: Mazzola et al.; cited from earlier work.
The test system of a further assay is rodent models. The settings on record: naïve as well as scopolamine or Aβ-treated rodent models; Terranova et al.; cited from earlier work.
Assay [3] concerns rodent model of episodic memory. The settings on record: in combination with Donepezil; Wise et al.; cited from earlier work.

Chain of recombinant human CB1 receptor expressed in CHO cells (P21554 whole entry): as above

With `CC(NC(=O)C(C)(C)Oc1ccccn1)C(Cc1ccc(Cl)cc1)c1cc(F)cc(F)c1` (single isomer, unassigned) [Example I-25, N-[3-(4-Chloro-phenyl)-2-(3,5-difluorophenyl)-1-methylpropyl]-2-methyl-2-(2-pyridyloxy)-propanamide], in assay [1], the IC50 was determined as 0.45 nM. For the same molecule, the EC50 in assay [2] is 1.33 nM.

Take `CC(NC(=O)C(C)(C)Oc1ccc(C(F)(F)F)cn1)C(Cc1ccc(Cl)cc1)c1cncc(C#N)c1` (single isomer, unassigned) [Example I-39, N-[3-(4-Chloro-phenyl)-2-(5-cyano-3-pyridyl)-1-methylpropyl]-2-(5-trifluoromethyl-2-pyridyloxy)-2-methylpropanamide]: the IC50 in assay [1] amounted to 3 nM. The EC50 in assay [2] is 1.5 nM.

Turning to `CC(C)CC(c1cccc(C#N)c1)C(C)NC(=O)C(C)(C)Oc1ccc(C(F)(F)F)cn1` (single isomer, unassigned) [Example I-60, N-(2-(3-cyano-phenyl)-1,4-dimethylpentyl)-2-methyl-2((5-(trifluoromethyl)-pyridin-2-yl)oxy)-propanamide], in assay [1], the IC50 is 1.39 nM. Besides, the EC50 in assay [2] was determined as 2 nM.

As for `CC(NC(=O)C(C)(C)Oc1ccc(C(F)(F)F)cn1)C(CC1CCCC1)c1cccc(C#N)c1` (single isomer, unassigned) [Example I-62, N-(2-(3-cyano-phenyl)-3-cyclopentyl-1-methylpropyl)-2-methyl-2((5-(trifluoromethyl)-pyridin-2-yl)oxy)-propanamide], the IC50 in assay [1] is 0.33 nM. Moreover, in assay [2], the EC50 stood at 2 nM.

Regarding `CC(NC(=O)C(C)(C)Oc1ccccn1)C(Cc1ccc(Cl)cc1)c1ccccc1` (stereo not drawn) [Example I-6, N-[3-(4-Chloro-phenyl)-1-methyl-2-phenylpropyl]-2-(2-pyridyloxy)-2-methylpropanamide], the IC50 in assay [1] is 2.3 nM. In addition, the EC50 in assay [2] is 2.1 nM.

`CC(NC(=O)C(C)(C)Oc1cc(C(F)(F)F)ncn1)C(Cc1ccc(Cl)cc1)c1cccc(C#N)c1` (stereo not drawn) [Example I-36, N-[3-(4-Chloro-phenyl)-2-(3-cyanophenyl)-1-methylpropyl]-2-(6-trifluoromethyl-4-pyrimidyloxy)-2-methylpropanamide]: the IC50 in assay [1] was 0.66 nM. In addition, the EC50 in assay [2] worked out at 1.25 nM.

In the case of `CC(NC(=O)C(C)(C)Oc1ccc(Cl)cn1)C(Cc1ccc(Cl)cc1)c1ccsc1` (stereo not drawn) [Example I-59], the IC50 in assay [1] came to 7.28 nM. For the same molecule, the concentration for a half-maximal effect (EC50) in assay [2] was 14 nM.

For the molecule `CC(NC(=O)C(C)(C)Oc1ccc(C(F)(F)F)cn1)C(Cc1ccc(Cl)cc1)c1cc(C#N)c[n+]([O-])c1` (stereo not drawn) [Example I-64], the IC50 in assay [1] came to 29.4 nM. Moreover, in assay [2], the EC50 was 13 nM.

On to `CC(C)(F)[C@H](c1cc(F)cc(C#N)c1)C1CN([C@@H](c2ccc(C#N)cc2)c2cccc(C#N)c2)C1` [II], for which, in assay [1], the IC50 was found to be 3 nM. Besides, the 50% effective concentration (EC50) in assay [2] worked out at 2 nM.

Take `Cc1c(C(=O)NN2CCCCC2)nn(-c2ccc(Cl)cc2Cl)c1-c1ccc(Cl)cc1` [SR 141716]: the “effect on memory deficit induced by Aβ-administration” value with mice was “improves the memory deficit”.

With `Cc1c(C(=O)NN2CCCCC2)nn(-c2ccc(Cl)cc2Cl)c1-c1ccc(Cl)cc1` [rimonabant], in the assay on rodent models, the “effect on learning and memory performance” value is “improves learning and memory performance”. For the same molecule, the “effect on cognition scores” value in assay [3] is reported as “additive effects on cognition scores”.
